Consider ten compounds from PubChem BioAssay (NCI).

Test systems include K-562 leukemia; KM12 colon; 786-0 renal; RXF 393 renal; SNB-75 CNS; COLO 205 colon; LOX IMVI melanoma; SR leukemia; MDA-MB-435; HCC-2998 colon.
Assay in all cases: growth of human tumour cells (NCI), 48 h

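1) Cells in 96-well plates. 2) Compound, 48 h, 5 concentrations. 3) Linear interpolation between surrounding doses. 4) Unreached endpoint = highest concentration. GI50: concentration for 50% inhibition of growth. Definition used: TGI = concentration required for complete inhibition of growth.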 Bounds are passed on as bounds.

For the compound `COc1ccc2cc(C(=O)/C=C/c3ccco3)ccc2c1`, the GI50 in the test with K-562 leukemia is 38 µM; in the test with KM12 colon it was 34.5 µM; in the test with 786-0 renal it was 10.4 µM; with RXF 393 renal, 15.9 µM; in the test on SNB-75 CNS, greater than 100 µM; in the test on COLO 205 colon it was 51.2 µM. The GI50 with LOX IMVI melanoma is 54 µM; in the test on SR leukemia, 16.2 µM; with MDA-MB-435, 34.2 µM. The TGI in the test on K-562 leukemia is greater than 100 µM; with KM12 colon it was greater than 100 µM; in the test on 786-0 renal it was greater than 100 µM; in the test with RXF 393 renal it was 38.7 µM; in the test with SNB-75 CNS it was greater than 100 µM; with COLO 205 colon it was greater than 100 µM. The TGI with LOX IMVI melanoma is greater than 100 µM; with SR leukemia, 68.2 µM; in the test on MDA-MB-435, greater than 100 µM.
`Cc1cccc2c1NC(=O)C2(c1ccc(O)cc1)c1ccc(O)cc1`: the GI50 in the test on K-562 leukemia was 19.1 µM; in the test with HCC-2998 colon it was 0.0706 µM; in the test on KM12 colon, 3.68 µM; in the test with 786-0 renal, 17.9 µM; in the test with RXF 393 renal, less than 0.0181 µM; in the test with SNB-75 CNS, 0.0601 µM. The GI50 in the test with COLO 205 colon is 0.0135 µM; in the test with LOX IMVI melanoma it was 6.76 µM; in the test with SR leukemia, 14 µM; in the test on MDA-MB-435 it was 15.4 µM. Moreover, the TGI came out at 99.5 µM in the test with K-562 leukemia; 24.6 µM with HCC-2998 colon; 23.6 µM in the test on KM12 colon; 40.1 µM in the test on 786-0 renal; 0.709 µM in the test on RXF 393 renal; 37.5 µM in the test with SNB-75 CNS. Besides, the TGI is 11.1 µM in the test on COLO 205 colon, 25.6 µM in the test with LOX IMVI melanoma, 45.4 µM with SR leukemia and 34.9 µM in the test with MDA-MB-435.
In the case of `CC(C(=O)N1C(=O)N(C(=O)[C@H](C)C(O)c2ccccc2)[C@H](c2ccccc2)[C@H]1c1ccccc1)[C@@H](O)c1ccccc1` (stereo partly drawn), the TGI in the test with K-562 leukemia is greater than 100 µM; in the test with HCC-2998 colon, greater than 100 µM; in the test with KM12 colon, greater than 100 µM; in the test with 786-0 renal, 82.8 µM; in the test on SNB-75 CNS, greater than 100 µM; in the test on COLO 205 colon, 33.2 µM. For the same compound, the TGI in the test on SR leukemia was greater than 100 µM; in the test with MDA-MB-435, 54.3 µM.
`COc1ccc(N2C(=O)C3c4[nH]c5cc(Cl)ccc5c4C4CCC(C(C)(C)C)CC4C3C2=O)cc1` (stereo not drawn): the TGI in the test on K-562 leukemia, in the test with HCC-2998 colon, in the test with KM12 colon, with 786-0 renal, with RXF 393 renal and in the test with SNB-75 CNS was greater than 100 µM each time. Besides, the figures for the TGI in the test with COLO 205 colon, in the test on SR leukemia and with MDA-MB-435 were greater than 100 µM, 43.6 µM and greater than 100 µM, respectively.
Turning to `CCCN(CCC)c1ccc(/C=N/NC(=O)c2cccnc2)cc1`, the GI50 in the test on K-562 leukemia was 8.02 µM; in the test on HCC-2998 colon, 25 µM; with KM12 colon it was 20.3 µM; in the test with 786-0 renal it was 32.5 µM; with RXF 393 renal it was 19.2 µM; in the test on SNB-75 CNS, 22 µM. Moreover, the GI50 is 31.5 µM with COLO 205 colon, 17.3 µM in the test on LOX IMVI melanoma, 6.82 µM in the test on SR leukemia and 3.63 µM with MDA-MB-435. For the same compound, the TGI with K-562 leukemia is greater than 100 µM; in the test with HCC-2998 colon, greater than 100 µM; in the test with KM12 colon, greater than 100 µM; with 786-0 renal, 94.8 µM; in the test with RXF 393 renal, 42.1 µM; in the test on SNB-75 CNS, 68.1 µM. Also, the TGI in the test with COLO 205 colon is greater than 100 µM; in the test on LOX IMVI melanoma, 58.5 µM; in the test on SR leukemia, greater than 100 µM; with MDA-MB-435 it was greater than 100 µM.
With `Nc1nc(Cl)nc2c1ncn2C1CCC(COP(=O)(O)OP(=O)(O)OP(=O)(O)O)O1` (stereo not drawn), the TGI with HCC-2998 colon is 86.1 µM; in the test with KM12 colon it was greater than 100 µM; in the test on 786-0 renal, greater than 100 µM; in the test on RXF 393 renal, 75 µM; in the test with SNB-75 CNS, 94.2 µM; in the test with COLO 205 colon, 41.7 µM. Also, the figures for the TGI with LOX IMVI melanoma, in the test with SR leukemia and with MDA-MB-435 were 78.5 µM, greater than 100 µM and 58.1 µM, respectively.
Turning to `CCCC(=O)Nc1ncnc2c1ncn2C1OC2COP(=O)(O)OC2C1OC(=O)CCC` (stereo not drawn), the GI50 in the test with K-562 leukemia, in the test with HCC-2998 colon, with KM12 colon, in the test with 786-0 renal, in the test on SNB-75 CNS and with COLO 205 colon was greater than 1000 µM throughout. Also, the GI50 with LOX IMVI melanoma and in the test with MDA-MB-435 was greater than 1000 µM each time. Further, the TGI with K-562 leukemia, in the test with HCC-2998 colon, in the test on KM12 colon, with 786-0 renal, in the test with SNB-75 CNS and in the test on COLO 205 colon was greater than 1000 µM throughout. Further, the TGI in the test on LOX IMVI melanoma, with SR leukemia and in the test on MDA-MB-435 was greater than 1000 µM throughout.
On to `O=C(Nc1ccc(Cl)cc1F)c1cc(Cl)ccc1O`, for which the GI50 with K-562 leukemia is 0.361 µM; in the test on HCC-2998 colon, 2.23 µM; with KM12 colon it was 1.51 µM; in the test on 786-0 renal it was 1.09 µM; in the test on RXF 393 renal it was 0.437 µM; in the test on SNB-75 CNS it was 0.456 µM. Also, the figures for the GI50 in the test on COLO 205 colon, in the test with SR leukemia and in the test on MDA-MB-435 were 2.41 µM, 2.2 µM and 0.499 µM, respectively. Moreover, the TGI in the test with K-562 leukemia was greater than 59.2 µM; in the test with HCC-2998 colon, 8.77 µM; in the test on KM12 colon, 4.28 µM; in the test with 786-0 renal it was 7.03 µM; in the test on RXF 393 renal, 4.73 µM; in the test on SNB-75 CNS, 3.77 µM. For the same compound, the TGI in the test with COLO 205 colon was 5.92 µM; in the test with SR leukemia it was greater than 49.3 µM; in the test with MDA-MB-435, 5.26 µM.
As for `O=C1C(Cl)=C(Nc2ccccn2)C(=O)c2ccccc21`, the GI50 in the test on K-562 leukemia was 1.92 µM; with HCC-2998 colon, 17.8 µM; in the test on KM12 colon it was 3.45 µM; in the test on 786-0 renal, 13.1 µM; with RXF 393 renal, 10.2 µM; with SNB-75 CNS it was 2 µM. In addition, the GI50 in the test with COLO 205 colon is 3.23 µM; in the test on LOX IMVI melanoma it was 2.04 µM; with SR leukemia, 2.49 µM; in the test with MDA-MB-435, 2.02 µM. The TGI amounted to 5.42 µM in the test with K-562 leukemia; 33.7 µM in the test on HCC-2998 colon; 10.8 µM with KM12 colon; 26.3 µM in the test on 786-0 renal; 21.8 µM in the test on RXF 393 renal; 4.49 µM with SNB-75 CNS. Moreover, the TGI is 11.4 µM in the test on COLO 205 colon, 5.29 µM with LOX IMVI melanoma, 5.32 µM in the test on SR leukemia and 3.96 µM in the test with MDA-MB-435.
Turning to `O=C1CCCCCCCCCCC1CN(Cc1ccccc1)Cc1ccccc1` (stereo not drawn), the TGI is greater than 100 µM in the test on K-562 leukemia; 85.8 µM in the test on HCC-2998 colon; greater than 100 µM in the test on KM12 colon; greater than 100 µM in the test with 786-0 renal; 70.2 µM with RXF 393 renal; greater than 100 µM with COLO 205 colon. The TGI in the test with LOX IMVI melanoma is 69.4 µM; in the test with SR leukemia, greater than 100 µM; in the test with MDA-MB-435, greater than 100 µM.
